Results on three compounds are retold here after the NIST ThermoML archive (doi:10.1021/je049940f).

Each structure is given as a SMILES string. ± gives the expanded uncertainty stated by the source.

Data set [1] is described as follows: xn = mol fraction of the nth substance listed. Particulars: 10000 kPa, Liquid.
A short description of data set [2]: wn = mass fraction of the nth substance listed. Particulars: Liquid.

For orientation: viscosity means the resistance of a fluid to flow. As to `O=C=O` [carbon dioxide] + O, the viscosity in data set [1] (303.15 K, x1 = 0.0073) came out at 0.81 ± 0.05 mPa·s; in data set [1] (303.15 K, x1 = 0.0148) it was 0.86 ± 0.05 mPa·s; in data set [1] (303.15 K, x1 = 0.0238), 0.89 ± 0.06 mPa·s; in data set [1] (313.15 K, x1 = 0.0107), 0.68 ± 0.04 mPa·s; in data set [1] (313.15 K, x1 = 0.0207), 0.7 ± 0.06 mPa·s.

Regarding `[Cl-].[Na+]` [sodium chloride] + O, the viscosity was determined as 0.84 ± 0.05 mPa·s in data set [2] (303.15 K, 10000 kPa, w1 = 0.03); 0.83 ± 0.05 mPa·s in data set [2] (303.15 K, 20000 kPa, w1 = 0.03); 0.68 ± 0.04 mPa·s in data set [2] (313.15 K, 10000 kPa, w1 = 0.03); 0.69 ± 0.04 mPa·s in data set [2] (313.15 K, 20000 kPa, w1 = 0.03); 0.59 ± 0.04 mPa·s in data set [2] (323.15 K, 10000 kPa, w1 = 0.03); 0.59 ± 0.04 mPa·s in data set [2] (323.15 K, 20000 kPa, w1 = 0.03). Also, the viscosity was 0.49 ± 0.04 mPa·s in data set [2] (333.15 K, 10000 kPa, w1 = 0.03) and 0.5 ± 0.04 mPa·s in data set [2] (333.15 K, 20000 kPa, w1 = 0.03).

With `O` [water] + [Cl-].[Na+], the viscosity in data set [2] (303.15 K, 10000 kPa, w2 = 0) is recorded as 0.8 ± 0.05 mPa·s; in data set [2] (313.15 K, 10000 kPa, w2 = 0) it was 0.66 ± 0.04 mPa·s; in data set [2] (323.15 K, 10000 kPa, w2 = 0), 0.56 ± 0.04 mPa·s; in data set [2] (333.15 K, 10000 kPa, w2 = 0), 0.47 ± 0.04 mPa·s.
